From patent publication US20240180221A1, “METHODS AND COMPOSITIONS FOR IMPROVED TASTE QUALITY” (ALMENDRA PTE. LTD., priority 2021, published 2024)

System: human taste testers
Experiment: Tasting of amino acid solutions in citric acid buffer for bitterness, with and without taste modulator
Type: in vivo
Details: for bitterness intensity: 7.5 mM solution in pH 3.2 CAB, 0-15 intensity scale; for Bitter Taste Threshold in CAB: pH 3.2 Citric Acid Buffer, serial dilutions from 30 mM to 1.88 mM tasted in ascending order

| Compound | bitterness intensity | Bitter Taste Threshold in CAB | bitterness onset and linger (in pH 3.2 CAB) |
| --- | --- | --- | --- |
| N[C@@H](Cc1ccccc1)C(=O)O [L-Phe, L-Phenylalanine] | 5 | ca. 3 mM |  |
| N[C@@H](Cc1c[nH]c2ccccc12)C(=O)O [L-Trp, L-Tryptophan] | 5 | ca. 3 mM | noticeably slow in onset and quite lingering |
